How the values were obtained:
Format in all cases: physicochemical
[1] = Foam test based upon ASTM D 1173-53
Procedure: The foaming properties of 0.1 wt % solutions of the N-octylpyrrolidone and the alkylformamide surfactants of this invention were examined using a procedure based upon ASTM D 1173-53. In this test, a 0.1 wt % solution of the surfactant is added from an elevated foam pipette to a foam receiver containing the same solution. The foam height is measured at the completion of the addition (“Initial Foam Height”) and the time required for the foam to dissipate at the air-liquid interface (“Time to 0 Foam”) is recorded. This test provides a comparison between the foaming characteristics of various surfactant solutions. In general, in coatings, inks, and agricultural formulations, foam is undesirable because it complicates handling and can lead to coating and print defects, and to inefficient application of agricultural materials.

[2] = Dynamic surface tension of aqueous solutions, maximum bubble pressure method
Source text: where R is a C5 to C11 alkyl group, provided that the organic compound is not an azole derivative fungicide. […] The maximum-bubble-pressure method of measuring surface tension is described in Langmuir 1986, 2, 428-432, which is incorporated by reference.
In the following Examples dynamic surface tension data were obtained for aqueous solutions of various compounds using the maximum bubble pressure method at bubble rates from 0.1 bubbles/second (b/s) to 20 b/s. […] In practical terms, high bubble rates correspond to high printing speeds in lithographic printing, high spray or roller velocities in coating applications, and rapid application rates for agricultural products.

[3] = Solubility limit in water from plot of ln(conc.) vs surface tension at 0.1 b/s
Source text: A plot of In(conc.) vs surface tension observed at 0.1 b/s was used to determine that the solubility limit of this material is 0.1 wt %.

Structure (SMILES): CCCCC(CC)CNC=O (stereo not drawn) [drawing 14, 2-ethylhexylformamide]
- Initial Foam Height ([1]; 0.1 wt % solution): 0.5 cm
- Time to 0 Foam ([1]; 0.1 wt % solution): 4 s

Structure (SMILES): CCCCCCCCNC=O [drawing 13, n-octylformamide]
- Initial Foam Height ([1]; 0.1 wt % solution): 0.9 cm
- Time to 0 Foam ([1]; 0.1 wt % solution): 5 s

Structure (SMILES): CCCCCCCCN1CCCC1=O [N-n-Octylpyrrolidone, reference compound]
- Dynamic Surface Tension ([2]; 0.003 wt % in water, 0.1 b/s): 65.1 dyne/cm
- Dynamic Surface Tension ([2]; 0.003 wt % in water, 1 b/s): 68.6 dyne/cm
- Dynamic Surface Tension ([2]; 0.003 wt % in water, 6 b/s): 70.8 dyne/cm
- Dynamic Surface Tension ([2]; 0.003 wt % in water, 15 b/s): 71.4 dyne/cm
- Dynamic Surface Tension ([2]; 0.003 wt % in water, 20 b/s): 71.1 dyne/cm
- Dynamic Surface Tension ([2]; 0.03 wt % in water, 0.1 b/s): 46.5 dyne/cm
- Dynamic Surface Tension ([2]; 0.03 wt % in water, 1 b/s): 49.3 dyne/cm
- Dynamic Surface Tension ([2]; 0.03 wt % in water, 6 b/s): 54.4 dyne/cm
- Dynamic Surface Tension ([2]; 0.03 wt % in water, 15 b/s): 58.7 dyne/cm
- Dynamic Surface Tension ([2]; 0.03 wt % in water, 20 b/s): 59.6 dyne/cm
- Dynamic Surface Tension ([2]; 0.07 wt % in water, 0.1 b/s): 35.2 dyne/cm
- Dynamic Surface Tension ([2]; 0.07 wt % in water, 1 b/s): 36.6 dyne/cm
- Dynamic Surface Tension ([2]; 0.07 wt % in water, 6 b/s): 39.6 dyne/cm
- Dynamic Surface Tension ([2]; 0.07 wt % in water, 15 b/s): 43.0 dyne/cm
- Dynamic Surface Tension ([2]; 0.07 wt % in water, 20 b/s): 43.9 dyne/cm
- Dynamic Surface Tension ([2]; 0.1 wt % in water, 0.1 b/s): 29.9 dyne/cm
- Dynamic Surface Tension ([2]; 0.1 wt % in water, 1 b/s): 31.0 dyne/cm
- Dynamic Surface Tension ([2]; 0.1 wt % in water, 1 b/s, listed as n-octylpyrrolidone): below 30 dyne/cm
- Dynamic Surface Tension ([2]; 0.1 wt % in water, 6 b/s): 33.4 dyne/cm
- Dynamic Surface Tension ([2]; 0.1 wt % in water, 15 b/s): 36.5 dyne/cm
- Dynamic Surface Tension ([2]; 0.1 wt % in water, 20 b/s): 37.2 dyne/cm
- Dynamic Surface Tension ([2]; 0.1 wt % in water, 20 b/s, listed as n-octylpyrrolidone): below 40 dyne/cm
- Dynamic Surface Tension ([2]; 0.21 wt % in water, 0.1 b/s): 27.6 dyne/cm
- Dynamic Surface Tension ([2]; 0.21 wt % in water, 1 b/s): 27.8 dyne/cm
- Dynamic Surface Tension ([2]; 0.21 wt % in water, 6 b/s): 28.4 dyne/cm
- Dynamic Surface Tension ([2]; 0.21 wt % in water, 15 b/s): 30.0 dyne/cm
- Dynamic Surface Tension ([2]; 0.21 wt % in water, 20 b/s): 30.6 dyne/cm
- Initial Foam Height ([1]; 0.1 wt % solution): 4.0 cm
- cm Foam after 5 min ([1]; 0.1 wt % solution): 1.0 cm
- foaming of aqueous solutions (in words) [1]: quite foamy

Structure (SMILES): CCCCCCNC=O [n-HF, n-hexylformamide]
- Dynamic Surface Tension ([2]; 0.1 wt % in water, 0.1 b/s (Table 4)): 56.0 dynes/cm
- Dynamic Surface Tension ([2]; 0.1 wt % in water, 1 b/s (Table 4)): 57.6 dynes/cm
- Dynamic Surface Tension ([2]; 0.1 wt % in water, 6 b/s (Table 4)): 58.8 dynes/cm
- Dynamic Surface Tension ([2]; 0.1 wt % in water, 15 b/s (Table 4)): 60.3 dynes/cm
- Dynamic Surface Tension ([2]; 0.1 wt % in water, 20 b/s (Table 4)): 60.6 dynes/cm
- Dynamic Surface Tension ([2]; 0.5 wt % in water, 0.1 b/s): 37.2 dynes/cm
- Dynamic Surface Tension ([2]; 0.5 wt % in water, 1 b/s): 38.0 dynes/cm
- Dynamic Surface Tension ([2]; 0.5 wt % in water, 6 b/s): 38.8 dynes/cm
- Dynamic Surface Tension ([2]; 0.5 wt % in water, 15 b/s): 40.1 dynes/cm
- Dynamic Surface Tension ([2]; 0.5 wt % in water, 20 b/s): 40.3 dynes/cm
- Dynamic Surface Tension ([2]; 1.0 wt % in water, 0.1 b/s): 28.4 dynes/cm
- Dynamic Surface Tension ([2]; 1.0 wt % in water, 1 b/s): 29.0 dynes/cm
- Dynamic Surface Tension ([2]; 1.0 wt % in water, 6 b/s): 29.6 dynes/cm
- Dynamic Surface Tension ([2]; 1.0 wt % in water, 15 b/s): 30.1 dynes/cm
- Dynamic Surface Tension ([2]; 1.0 wt % in water, 20 b/s): 31.1 dynes/cm
- surface tension ([2]; 1.0 wt % solution, 20 b/s): 31.1 dyne/cm
- Dynamic Surface Tension ([2]; 2.0 wt % in water, 0.1 b/s): 27.4 dynes/cm
- Dynamic Surface Tension ([2]; 2.0 wt % in water, 1 b/s): 28.4 dynes/cm
- Dynamic Surface Tension ([2]; 2.0 wt % in water, 6 b/s): 29.3 dynes/cm
- Dynamic Surface Tension ([2]; 2.0 wt % in water, 15 b/s): 30.7 dynes/cm
- Dynamic Surface Tension ([2]; 2.0 wt % in water, 20 b/s): 30.3 dynes/cm
- solubility limit [3]: 1.1 wt %
- foaming of aqueous solutions (in words) [1]: almost no foam

Structure (SMILES): CCCCCCCCCCNC=O [drawing 16, n-decylformamide]
- Initial Foam Height ([1]; 0.1 wt % solution): 2.4 cm
- Time to 0 Foam ([1]; 0.1 wt % solution): 12 s

Structure (SMILES): CCCCCCCCNC=O [n-OF, n-octylformamide]
- Dynamic Surface Tension ([2]; 0.03 wt % in water, 0.1 b/s): 42.8 dyne/cm
- Dynamic Surface Tension ([2]; 0.03 wt % in water, 1 b/s): 46.1 dyne/cm
- Dynamic Surface Tension ([2]; 0.03 wt % in water, 6 b/s): 52.2 dyne/cm
- Dynamic Surface Tension ([2]; 0.03 wt % in water, 15 b/s): 58.5 dyne/cm
- Dynamic Surface Tension ([2]; 0.03 wt % in water, 20 b/s): 60.4 dyne/cm
- Dynamic Surface Tension ([2]; 0.05 wt % in water, 0.1 b/s): 35.6 dyne/cm
- Dynamic Surface Tension ([2]; 0.05 wt % in water, 1 b/s): 37.7 dyne/cm
- Dynamic Surface Tension ([2]; 0.05 wt % in water, 6 b/s): 42.5 dyne/cm
- Dynamic Surface Tension ([2]; 0.05 wt % in water, 15 b/s): 48.6 dyne/cm
- Dynamic Surface Tension ([2]; 0.05 wt % in water, 20 b/s): 50.5 dyne/cm
- Dynamic Surface Tension ([2]; 0.07 wt % in water, 0.1 b/s): 30.9 dyne/cm
- Dynamic Surface Tension ([2]; 0.07 wt % in water, 1 b/s): 32.5 dyne/cm
- Dynamic Surface Tension ([2]; 0.07 wt % in water, 6 b/s): 36.3 dyne/cm
- Dynamic Surface Tension ([2]; 0.07 wt % in water, 15 b/s): 41.5 dyne/cm
- Dynamic Surface Tension ([2]; 0.07 wt % in water, 20 b/s): 43.7 dyne/cm
- Dynamic Surface Tension ([2]; 0.1 wt % in water, 1 b/s): 26.6 dyne/cm
- Dynamic Surface Tension ([2]; 0.1 wt % in water, 6 b/s): 28.7 dyne/cm
- Dynamic Surface Tension ([2]; 0.1 wt % in water, 15 b/s): 34.4 dyne/cm
- solubility limit [3]: 0.1 wt %

Structure (SMILES): CCCCCCCCCCNC=O [n-DF, n-decylformamide]
- Dynamic Surface Tension ([2]; 0.005 wt % in water, 0.1 b/s): 53.4 dyne/cm
- Dynamic Surface Tension ([2]; 0.005 wt % in water, 1 b/s): 67.1 dyne/cm
- Dynamic Surface Tension ([2]; 0.005 wt % in water, 6 b/s): 70.6 dyne/cm
- Dynamic Surface Tension ([2]; 0.005 wt % in water, 15 b/s): 72.5 dyne/cm
- Dynamic Surface Tension ([2]; 0.005 wt % in water, 20 b/s): 73.1 dyne/cm
- Dynamic Surface Tension ([2]; 0.007 wt % in water, 0.1 b/s): 36.3 dyne/cm
- Dynamic Surface Tension ([2]; 0.007 wt % in water, 1 b/s): 59.2 dyne/cm
- Dynamic Surface Tension ([2]; 0.007 wt % in water, 6 b/s): 70.3 dyne/cm
- Dynamic Surface Tension ([2]; 0.007 wt % in water, 15 b/s): 72.3 dyne/cm
- Dynamic Surface Tension ([2]; 0.007 wt % in water, 20 b/s): 72.9 dyne/cm
- Dynamic Surface Tension ([2]; 0.01 wt % in water, 0.1 b/s): 32.4 dyne/cm
- Dynamic Surface Tension ([2]; 0.01 wt % in water, 1 b/s): 55.4 dyne/cm
- Dynamic Surface Tension ([2]; 0.01 wt % in water, 6 b/s): 69.1 dyne/cm
- Dynamic Surface Tension ([2]; 0.01 wt % in water, 15 b/s): 72.5 dyne/cm
- Dynamic Surface Tension ([2]; 0.01 wt % in water, 20 b/s): 72.8 dyne/cm
- solubility limit [3]: 0.01 wt %

Structure (SMILES): CCCCC(CC)CNC=O (stereo not drawn) [2-EHF, 2-ethylhexylformamide]
- Dynamic Surface Tension ([2]; 0.03 wt % in water, 0.1 b/s): 51.1 dyne/cm
- Dynamic Surface Tension ([2]; 0.03 wt % in water, 1 b/s): 53.0 dyne/cm
- Dynamic Surface Tension ([2]; 0.03 wt % in water, 6 b/s): 57.0 dyne/cm
- Dynamic Surface Tension ([2]; 0.03 wt % in water, 15 b/s): 60.1 dyne/cm
- Dynamic Surface Tension ([2]; 0.03 wt % in water, 20 b/s): 60.3 dyne/cm
- Dynamic Surface Tension ([2]; 0.05 wt % in water, 0.1 b/s): 45.9 dyne/cm
- Dynamic Surface Tension ([2]; 0.05 wt % in water, 1 b/s): 47.2 dyne/cm
- Dynamic Surface Tension ([2]; 0.05 wt % in water, 6 b/s): 49.9 dyne/cm
- Dynamic Surface Tension ([2]; 0.05 wt % in water, 15 b/s): 52.6 dyne/cm
- Dynamic Surface Tension ([2]; 0.05 wt % in water, 20 b/s): 53.3 dyne/cm
- Dynamic Surface Tension ([2]; 0.07 wt % in water, 0.1 b/s): 42.8 dyne/cm
- Dynamic Surface Tension ([2]; 0.07 wt % in water, 1 b/s): 43.8 dyne/cm
- Dynamic Surface Tension ([2]; 0.07 wt % in water, 6 b/s): 46.0 dyne/cm
- Dynamic Surface Tension ([2]; 0.07 wt % in water, 15 b/s): 48.3 dyne/cm
- Dynamic Surface Tension ([2]; 0.07 wt % in water, 20 b/s): 49.1 dyne/cm
- Dynamic Surface Tension ([2]; 0.1 wt % in water, 0.1 b/s): 39.1 dyne/cm
- Dynamic Surface Tension ([2]; 0.1 wt % in water, 1 b/s): 39.9 dyne/cm
- Dynamic Surface Tension ([2]; 0.1 wt % in water, 6 b/s): 41.6 dyne/cm
- Dynamic Surface Tension ([2]; 0.1 wt % in water, 15 b/s): 43.5 dyne/cm
- Dynamic Surface Tension ([2]; 0.1 wt % in water, 20 b/s): 44.2 dyne/cm
- Dynamic Surface Tension ([2]; 0.2 wt % in water, 0.1 b/s): 32.1 dyne/cm
- Dynamic Surface Tension ([2]; 0.2 wt % in water, 1 b/s): 32.4 dyne/cm
- Dynamic Surface Tension ([2]; 0.2 wt % in water, 6 b/s): 33.3 dyne/cm
- Dynamic Surface Tension ([2]; 0.2 wt % in water, 15 b/s): 34.9 dyne/cm
- Dynamic Surface Tension ([2]; 0.2 wt % in water, 20 b/s): 35.5 dyne/cm
- solubility limit [3]: 0.2 wt %

From patent US6605145B1, “Alkylformamide surfactants” (Air Products and Chemicals, Inc., priority 1999, dated 2003)
